Where two headings read alike, the source gives them in different places.
Experiments:
Type in all cases: cell-based
[1] = tested on: HEK293T Gα16gustducin44 cells (that do not express TAS2R46)
Protocol: (§1) At day 0, the HEK293T cell line expressing Gα16-gustducin44 and a TAS2R46 bitter taste receptor formed as described in examples 2b or 2c was seeded in antibiotic-free growth medium (standard DMEM with 10% (v/v) heat-inactivated fetal bovine serum, 2 mM L-glutamine[…]) into black wall/clear bottom 96-well plates, coated with poly(ethylenimine) (0.005% v/v) at a concentration of 15,000 cells per well and incubated for 48 hours in humidified atmosphere (37° C., 5% CO2).
(§2) At the time of the assay, the growth medium was discarded and the cells were in humidified atmosphere (37° C., 5% CO2) for 1 hour with 50 μl of loading buffer consisting of 1.5 μM Fluo-4 AM and […] probenicid (Sigma-Aldrich, St. Louis, Mo., US) in DMEM.
(§3) Afterwards, the 96-well plate was washed 5 times with 100 μl of assay buffer (130 mM NaCl, 5 mM KCl, 10 mM HEPES, 2 mM CaCl2, and 5 mM dextrose, pH 7.4) per well, using an automated plate washer (BioTek). The plate was further incubated for 30 minutes at room temperature in the dark to allow for complete de-esterification of the Fluo-4. Afterwards the plate was washed 5 times with 100 μl of assay buffer per well, and reconstituted with 100 μl of assay buffer per well.
(§4) For assay reading, the plate was placed in a Fluorometric Imaging Plate Reader (FLIPR) (FLIPR-TETRA™, Molecular Devices, Sunnyvale, Calif., US), and receptor activation was initiated by addition of 20 μl of a tenfold concentrated agonist stock solution (to give the desired agonist end concentration when added to the 180 microliter assay buffer volume), which was prepared in assay buffer.
(§5) Fluorescence was continuously monitored for 20 seconds to give a signal baseline (averaged to give F0) prior to agonist addition and for 120 seconds after agonist addition. The change in signal divided by F0 gives ΔF/F0 indicated in the table, with ΔF being the maximum signal occurring within the 120 seconds minus the minimum signal (occurring within the 120 seconds after agonist addition.
(§6) The obtained calcium signals were corrected for the response of cells expressing only the G Protein α subunit (Gα16-gustducin44) and normalized to the fluorescence of cells prior to the stimulus using ΔF/F0 (Fmax−Fmin/F0).

human TAS2R46 [2] = molecular target: T1, human TAS2R46 (Homo sapiens, UniProt P59540)
T1 construct: RSS tag (first 45 amino acids of rat somatostatin receptor subtype 3, plus EcoRI site residues) (N); expressed in transfected cells
T1 sequence (P59540 with tags, fused parts or gaps): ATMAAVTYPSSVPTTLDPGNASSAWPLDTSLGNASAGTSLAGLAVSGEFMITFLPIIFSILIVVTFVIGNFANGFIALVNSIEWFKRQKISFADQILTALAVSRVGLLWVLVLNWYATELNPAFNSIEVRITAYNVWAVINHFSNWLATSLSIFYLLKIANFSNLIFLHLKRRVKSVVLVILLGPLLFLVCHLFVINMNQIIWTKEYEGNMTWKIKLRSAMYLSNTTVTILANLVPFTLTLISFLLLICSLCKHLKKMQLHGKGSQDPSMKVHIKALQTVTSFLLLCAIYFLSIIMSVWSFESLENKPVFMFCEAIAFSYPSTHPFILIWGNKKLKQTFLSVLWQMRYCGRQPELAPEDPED
Protocol: as §1, §2, §3, §4, §5, §6

human TAS2R46 [3] = molecular target: T1, human TAS2R46; test: Fluo-4 calcium assay, HEK293T/Gα16-gustducin44 cells transiently expressing TAS2R46
Protocol: In a second tube, 0.3 μl of Lipofectamine 2000 was diluted in 12.5 μl of DMEM and incubated for 5 min at room temperature. After the 5 min, both solutions were mixed and incubated for 20 min at RT. […] This mixture was then replaced with an antibiotic-free, serum-containing DMEM. […]
as §4
Fluorescence was continuously monitored for 20 seconds to give a signal baseline (averaged to give F0) prior to agonist addition and for 120 seconds after agonist addition. […]
as §6

[4] = tested on: more than 15 human TAS2Rs; test: Activation of other human TAS2Rs; conditions: more than 15 human TAS2Rs tested

Structure (SMILES): COc1ccc2c(c1)[C@]13CCCC[C@@H]1[C@H](C2)N(C)CC3 [dextromethorphan]
- Neg. Control ΔF/F0 ([1]; dextromethorphan 0.254 μM, cells expressing only Gα16gustducin44): 0.050
- Neg. Control ΔF/F0 ([1]; dextromethorphan 0.508 μM, cells expressing only Gα16gustducin44): 0.044
- Neg. Control ΔF/F0 ([1]; dextromethorphan 1.016 μM, cells expressing only Gα16gustducin44): 0.053
- Neg. Control ΔF/F0 ([1]; dextromethorphan 2.031 μM, cells expressing only Gα16gustducin44): 0.038
- Neg. Control ΔF/F0 ([1]; dextromethorphan 4.063 μM, cells expressing only Gα16gustducin44): 0.041
- Neg. Control ΔF/F0 ([1]; dextromethorphan 8.125 μM, cells expressing only Gα16gustducin44): 0.044
- Neg. Control ΔF/F0 ([1]; dextromethorphan 16.250 μM, cells expressing only Gα16gustducin44): 0.067
- Neg. Control ΔF/F0 ([1]; dextromethorphan 65.000 μM, cells expressing only Gα16gustducin44): 0.312
- change in signal in the negative control (in words) ([1]; host cells expressing only Gα16-gustducin44): No significant change
- calcium signaling upon addition of agonist (in words) (human TAS2R46 [2]; cells stably expressing human TAS2R46): significant increase in calcium signaling
- EC50 (human TAS2R46 [2]; stable cell line, nonlinear regression of ΔF/F0, read-out: calculated EC50 value for TAS2R46): 31 µM
- calcium signaling upon addition of agonist (in words) (human TAS2R46 [3]): significant concentration-dependent increase in calcium signaling
- activation of other human TAS2Rs (in words) [4]: not to be activated

Structure (SMILES): O=C1C[C@@H]2OCC=C3CN4CC[C@]56c7ccccc7N1[C@H]5[C@H]2[C@H]3C[C@H]46 [strychnine]
- Neg. Control ΔF/F0 ([1]; strychnine 0.977 μM, cells without TAS2R46): 0.060
- Neg. Control ΔF/F0 ([1]; strychnine 1.953 μM, cells without TAS2R46): 0.065
- Neg. Control ΔF/F0 ([1]; strychnine 3.906 μM, cells without TAS2R46): 0.071
- Neg. Control ΔF/F0 ([1]; strychnine 7.813 μM, cells without TAS2R46): 0.070
- Neg. Control ΔF/F0 ([1]; strychnine 15.63 μM, cells without TAS2R46): 0.063
- Neg. Control ΔF/F0 ([1]; strychnine 31.25 μM, cells without TAS2R46): 0.088
- Neg. Control ΔF/F0 ([1]; strychnine 62.50 μM, cells without TAS2R46): 0.091
- Neg. Control ΔF/F0 ([1]; strychnine 125.0 μM, cells without TAS2R46): 0.088
- Neg. Control ΔF/F0 ([1]; strychnine 250.0 μM, cells without TAS2R46): 0.181

Reference: US8603762B2 (priority 2008, dated 2013)
